Assay results from ChEMBL document CHEMBL1201862, “PubChem BioAssay data set” (2004).
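Interpolation was linear, between the two tested concentrations surrounding the appropriate level; five concentrations were tested over 48 hours in 96-well plates. Abbreviation: GI50, concentration required for 50% inhibition of growth.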 Activity calls are given as the source filed them. No stated cut-off is given here; in the data, active = GI50 up to about 1.1 µM and inactive = higher.

What was measured:
Test in all cases: DTP human tumour cell line panel, 48 h
SK-MEL-28 = system: SK-MEL-28
NCI-H460 = system: NCI-H460
HOP-62 = system: HOP-62
T47D = system: T47D
NCI-H522 = system: NCI-H522
SNB-19 = system: SNB-19
MCF7 = system: MCF7
SNB-75 = system: SNB-75
M14 = system: M14
UO-31 = system: UO-31
RXF 393 = system: RXF 393
EKVX = system: EKVX
Hs-578T = system: Hs-578T
A549 = system: A549
SK-OV-3 = system: SK-OV-3
MDA-MB-435 = system: MDA-MB-435
OVCAR-3 = system: OVCAR-3
RPMI-8226 = system: RPMI-8226
786-0 = system: 786-0
MDA-N = system: MDA-N

Row | SMILES | GI50 (SK-MEL-28) | GI50 (NCI-H460) | GI50 (HOP-62) | GI50 (T47D) | GI50 (NCI-H522) | GI50 (SNB-19) | GI50 (MCF7) | GI50 (SNB-75) | GI50 (M14) | GI50 (UO-31) | GI50 (RXF 393) | GI50 (EKVX) | GI50 (Hs-578T) | GI50 (A549) | GI50 (SK-OV-3) | GI50 (MDA-MB-435) | GI50 (OVCAR-3) | GI50 (RPMI-8226) | GI50 (786-0) | GI50 (MDA-N)
1 | C=C1c2nc3ccccc3n2C=C(c2ccc(C)cc2)N1c1ccc(OC)cc1 | > 70.5 µM (inactive) | 59.8 µM (inactive) | > 100 µM (inactive) | 26.2 µM (inactive) | 7.52 µM (inactive) | > 100 µM (inactive) | 15.3 µM (inactive) | > 80 µM (inactive) | 58.2 µM (inactive) | 44.5 µM (inactive) | > 56.9 µM (inactive) | 32.5 µM (inactive) | > 77.4 µM (inactive) | 47.5 µM (inactive) | > 100 µM (inactive) | 3.04 µM (inactive) | 46.8 µM (inactive) | 13 µM (inactive) | > 100 µM (inactive) | 
2 | Fc1cc(-c2cc(-c3ccc4c(c3)OCO4)n[nH]2)c(Cl)cc1Cl | 5.22 µM (inactive) | 3.61 µM (inactive) | 2.29 µM (inactive) | 2.2 µM (inactive) | 4.1 µM (inactive) | 3.5 µM (inactive) |  | 1.8 µM (inactive) | 4.75 µM (inactive) | 2.51 µM (inactive) | 1.89 µM (inactive) | 1.75 µM (inactive) | 3.99 µM (inactive) | 2.72 µM (inactive) | 2.13 µM (inactive) | 4.88 µM (inactive) | 2.21 µM (inactive) | 4.54 µM (inactive) | 1.84 µM (inactive) | 
3 | O=c1ccn(C2OC(CN(O)CCC3C(CO)OC(n4ccc(=O)[nH]c4=O)C3O)C(O)C2O)c(=O)[nH]1 (stereo unspecified) | > 100 µM (inactive) | > 100 µM (inactive) | > 100 µM (inactive) | > 100 µM (inactive) |  | > 100 µM (inactive) | > 100 µM (inactive) | > 100 µM (inactive) | > 100 µM (inactive) | > 100 µM (inactive) | > 100 µM (inactive) | > 100 µM (inactive) | > 100 µM (inactive) | > 100 µM (inactive) | > 100 µM (inactive) | > 100 µM (inactive) | > 100 µM (inactive) | > 100 µM (inactive) | > 100 µM (inactive) | > 100 µM (inactive)
4 | C/C(=N\NC(=S)N1CCOCC1)c1nc2cccnc2[nH]1 | 74.1 µM (inactive) | 31.4 µM (inactive) | 24.9 µM (inactive) | 29.4 µM (inactive) | 18.8 µM (inactive) | 21.9 µM (inactive) | 30.5 µM (inactive) | 18.2 µM (inactive) | 68.2 µM (inactive) | 17.5 µM (inactive) |  | 19.5 µM (inactive) | 39.2 µM (inactive) | 30.7 µM (inactive) | 36.6 µM (inactive) | > 100 µM (inactive) | 31 µM (inactive) | 42.6 µM (inactive) | > 10 µM (inactive) | > 100 µM (inactive)
5 | CCN(CC)CCCC(C)Nc1cc(/C=C/c2ccc(Cl)cc2)nc2cc(N(C)C)ccc12 (stereo unspecified) | 1.74 µM (inactive) | 1.67 µM (inactive) | 1.89 µM (inactive) | 1.66 µM (inactive) |  | 1.82 µM (inactive) | 1.34 µM (inactive) |  | 1.61 µM (inactive) | 2.04 µM (inactive) | 1.61 µM (inactive) | 1.73 µM (inactive) | 2.37 µM (inactive) | 2.25 µM (inactive) |  | 1.67 µM (inactive) | 1.7 µM (inactive) |  | 2.92 µM (inactive) | 1.47 µM (inactive)
6 | COc1ccc(C(=O)N(C(=O)N2CCN(c3ccccc3)CC2)S(=O)(=O)c2ccccc2)cc1 | 30.8 µM (inactive) | 32.4 µM (inactive) | 35 µM (inactive) | 23 µM (inactive) | 15.4 µM (inactive) | 24.7 µM (inactive) | 29.6 µM (inactive) | 32.7 µM (inactive) | 19.7 µM (inactive) | 13.6 µM (inactive) |  | 20.7 µM (inactive) | 25.1 µM (inactive) | 28.4 µM (inactive) | 86.5 µM (inactive) | 29.5 µM (inactive) | 37.8 µM (inactive) |  | 29.9 µM (inactive) | 23.9 µM (inactive)
7 | CC(=O)C1(O)CCC2(O)C3(O)CC=C4CC(O)CCC4(C)C3CC(OC(=O)c3ccc(O)cc3)C12C (stereo unspecified) | > 100 µM (inactive) | > 100 µM (inactive) | > 100 µM (inactive) | > 100 µM (inactive) | > 100 µM (inactive) | > 100 µM (inactive) | > 100 µM (inactive) | > 100 µM (inactive) | > 100 µM (inactive) | > 100 µM (inactive) |  | > 100 µM (inactive) | > 100 µM (inactive) | > 100 µM (inactive) | > 100 µM (inactive) | > 100 µM (inactive) | > 100 µM (inactive) | > 100 µM (inactive) | > 100 µM (inactive) | > 100 µM (inactive)
8 | CC(C)(C)OC(=O)N(CCCCNC(=O)c1ccccc1)CCCNC(=O)c1ccccc1 | > 100 µM (inactive) | > 100 µM (inactive) | > 100 µM (inactive) | 74.3 µM (inactive) | > 100 µM (inactive) | > 100 µM (inactive) | > 100 µM (inactive) | > 100 µM (inactive) | > 100 µM (inactive) | 90.6 µM (inactive) | > 100 µM (inactive) | > 100 µM (inactive) | > 100 µM (inactive) | > 100 µM (inactive) | > 100 µM (inactive) | > 100 µM (inactive) | > 100 µM (inactive) | > 100 µM (inactive) | > 100 µM (inactive) | 
9 | Cc1ccsc1/C=N/Nc1ncccn1 | > 100 µM (inactive) |  | > 100 µM (inactive) | > 100 µM (inactive) |  | > 100 µM (inactive) | 0.741 µM (active) | > 100 µM (inactive) | > 100 µM (inactive) | > 100 µM (inactive) | > 100 µM (inactive) | > 100 µM (inactive) | > 100 µM (inactive) | > 100 µM (inactive) | > 100 µM (inactive) | > 100 µM (inactive) | > 100 µM (inactive) | > 100 µM (inactive) | > 100 µM (inactive) | > 100 µM (inactive)
10 | BrCC[P+](c1ccccc1)(c1ccccc1)c1ccccc1 | 4.89 µM (inactive) | 19.5 µM (inactive) | 6.68 µM (inactive) | 1.27 µM (inactive) |  | 21.4 µM (inactive) | 13.5 µM (inactive) | 3.23 µM (inactive) | 4.15 µM (inactive) | 4.75 µM (inactive) | 2.43 µM (inactive) | 0.792 µM (active) | 20.4 µM (inactive) | 1.91 µM (inactive) | 24.5 µM (inactive) | 2.84 µM (inactive) | 2.59 µM (inactive) | 0.948 µM (active) | 2.75 µM (inactive) | 2.61 µM (inactive)
11 | Clc1ccc(C2=NCON=C2c2ccc(Cl)cc2)cc1 |  | 19.7 µM (inactive) | 25.6 µM (inactive) | 0.71 µM (active) |  | 28 µM (inactive) | 25.6 µM (inactive) | 24.8 µM (inactive) |  | 15.7 µM (inactive) | 18.7 µM (inactive) | 15.1 µM (inactive) | 13.8 µM (inactive) | 31.3 µM (inactive) | 14.5 µM (inactive) |  | 15.8 µM (inactive) | 16.8 µM (inactive) | 19.7 µM (inactive) | 18.8 µM (inactive)
12 | O=c1cc(-c2cccnc2)[nH]c2cc3c(cc12)OCO3 | 6.18 µM (inactive) | 10.8 µM (inactive) | 7.5 µM (inactive) | > 100 µM (inactive) |  | 13 µM (inactive) | 5.92 µM (inactive) | 3.29 µM (inactive) | 4.59 µM (inactive) | 44.4 µM (inactive) | 9.02 µM (inactive) |  | 11.3 µM (inactive) | 19.2 µM (inactive) | > 20.9 µM (inactive) | 1.84 µM (inactive) | 2.81 µM (inactive) | 34 µM (inactive) | 33.3 µM (inactive) | 2.29 µM (inactive)
13 | COC1=CC(=O)C2=C(C1=O)[C@H]1CC[C@]3(C)[C@@H](OC(C)=O)CC[C@H]3[C@@H]1CC2 | > 100 µM (inactive) | 71 µM (inactive) | > 100 µM (inactive) | 23.2 µM (inactive) | > 100 µM (inactive) | > 100 µM (inactive) |  | > 100 µM (inactive) | > 100 µM (inactive) | > 100 µM (inactive) | 61.2 µM (inactive) | 13.6 µM (inactive) | 38.3 µM (inactive) | > 100 µM (inactive) | > 100 µM (inactive) | 19.2 µM (inactive) | > 100 µM (inactive) | 31 µM (inactive) | 55.6 µM (inactive) | 28.6 µM (inactive)
14 | C=CCOC(=O)C1C2OC3(C(C(=O)OC)=C2C(=O)OC)c2ccccc2CCC13 (stereo unspecified) | > 10 µM (inactive) | > 10 µM (inactive) | > 10 µM (inactive) | > 10 µM (inactive) |  | > 10 µM (inactive) | > 10 µM (inactive) |  | > 10 µM (inactive) | > 10 µM (inactive) | > 10 µM (inactive) | > 10 µM (inactive) | > 10 µM (inactive) | > 10 µM (inactive) | > 10 µM (inactive) | > 10 µM (inactive) | > 10 µM (inactive) | > 10 µM (inactive) | > 10 µM (inactive) | > 10 µM (inactive)
15 | N[C@H]1CCC[C@@H](O)C1O (stereo partly specified) | > 100 µM (inactive) | > 100 µM (inactive) | > 100 µM (inactive) | > 100 µM (inactive) |  |  | > 100 µM (inactive) | > 100 µM (inactive) | > 100 µM (inactive) |  |  | > 100 µM (inactive) | > 100 µM (inactive) | > 100 µM (inactive) | > 100 µM (inactive) | > 100 µM (inactive) | > 100 µM (inactive) | > 100 µM (inactive) | > 100 µM (inactive) | > 100 µM (inactive)
